Measured values reported in patent US9005678B1, “Pharmaceutical composition for treating cancer and use thereof” (Jiangsu Province Institute of Traditional Chinese Medicine, priority 2013, dated 2015).

What was measured:
[1] = Body weight of CIPN rats (oxaliplatin-induced peripheral neuropathy model); type: in vivo, rat; conditions: oxaliplatin 4 mg/kg i.p. twice per week; after 7 days of modeling
Description: (§1) Animals were housed 3 per cage in a temperature- and humidity-controlled environment under a 12/12-h light/dark cycle. Food and water were freely available. All experimental procedures were approved by the Animal Experimental committee of Jiangsu Province Academy of Traditional Chinese Medicine. All efforts were made to minimize the number of animals used and their suffering.
(§2) (1) Animal Grouping: the rats were randomly divided into five groups by using randomized grouping method (N=10 rats/group):
(§3) Group 1: saline (control group)
(§4) (2) Modeling and Administration: The first day of drug treatment was referred to as d1. […] After the last administration, the rats were sacrificed. Spinal cord and L5 dorsal root ganglia were harvested from all experimental animals, and taken to make tissue sections, which were stained with Nissl staining to observe the extent of damage in neurons. The expressions of pain-related TRP ion channel proteins, TRPMS, TRPV1, and TRPA1mRNA, in dorsal root ganglion tissue were determined by qPCR assay. (4) Von Frey test for mechanical allodynia: According to the method described by Chaplan et al^[22], the mechanical allodynia was assessed by von Frey test. Rats were placed in a clear plastic box (22×12×22 cm) with a wire mesh floor and allowed to habituate for 15 min prior to testing. […] 3.

CIPN rats = assay: Von Frey test for mechanical allodynia in CIPN rats; type: in vivo, rat; conditions: oxaliplatin 4 mg/kg i.p.; 14 days after the experiment; P<0.05
Description: as §1, §2, §3, §4

DRG neurons = assay: Nissl staining of L5 dorsal root ganglia sections of CIPN rats; type: in vivo, rat; conditions: oxaliplatin 4 mg/kg i.p.
Method: as §4

TRPM8 mRNA = TRPM8 mRNA expression in DRG by real-time PCR; type: in vivo, rat; conditions: L4-L6 DRG; oxaliplatin model group; P<0.01
Method: as §4, with “Withdrawal responses to the stimulation of von Frey filaments were recorded and paw withdrawal thresholds were determined by a modified up-down method. Each von Frey filament with equivalent force was measured for five times, and the time interval between simulations was 30 seconds, 3 or more times of positive reactions out of 5 simulations was deemed to be mechanical allodynia. […]” for “3.”
(§5) To elucidate the mechanism of the preventive effect of AC591 on oxaliplatin-induced peripheral neuropathy, we determined the expression of TRPM8, TRPV1 and TRPA1 mRNA in L4-L6 DRG using real-time PCR.

TRPV1 mRNA = TRPV1 mRNA expression in DRG by real-time PCR; type: in vivo, rat; conditions: L4-L6 DRG; oxaliplatin model group; P<0.01
Method: as §4, with “Withdrawal responses to the stimulation of von Frey filaments were recorded and paw withdrawal thresholds were determined by a modified up-down method. Each von Frey filament with equivalent force was measured for five times, and the time interval between simulations was 30 seconds, 3 or more times of positive reactions out of 5 simulations was deemed to be mechanical allodynia. […]” for “3.”
as §5

TRPA1 mRNA = TRPA1 mRNA expression in DRG by real-time PCR; type: in vivo, rat; conditions: L4-L6 DRG; oxaliplatin model group; P<0.01
Method: as §4, with “Withdrawal responses to the stimulation of von Frey filaments were recorded and paw withdrawal thresholds were determined by a modified up-down method. Each von Frey filament with equivalent force was measured for five times, and the time interval between simulations was 30 seconds, 3 or more times of positive reactions out of 5 simulations was deemed to be mechanical allodynia. […]” for “3.”
as §5

[2] = tested on: CT26 murine colorectal cancer cells; assay: Colorectal cancer subcutaneous xenograft, tumor volume; type: in vivo, Balb/c mice; conditions: oxaliplatin 5 mg/kg i.p.; days 4 and 7; P<0.05
Method: Experimental Animals and Cell Lines: Six-week-old Balb/c mice weighing (16±2) g, bisexual each half, were purchased from Shanghai Slac Laboratory Animal Center and kept in SPF Laboratory Animal Room in Institute of Chinese Medicine and Pharmacy of Jiangsu Province. CT26 murine colorectal cancer cells were obtained from molecular biology laboratory of Institute of Chinese Medicine and Pharmacy of Jiangsu Province.
CT26 cells were cultured in Dulbecco's Modified Eagle Medium with 2.0 g/1 sodium bicarbonate plus 10% fetal bovine serum, 1% L-glutamine, 100 U/ml penicillin and 100 U/ml streptomycin. When the cells were approximately 80% confluent, the culture medium was discarded and washed with PBS. Trypsin was then introduced to perform digestion. When the connection between cells appeared loose, the trypsin was discarded, and cell culture medium was introduced to terminate the digestion. Cells were repeatedly and gently pipetted with a pipette so as to be taken off the wall to form cell suspension. It was collected into centrifuge tubes and centrifuged. The concentration of cell suspension was adjusted to 1×10^6/0.2 ml with 0.9% sterile saline. […]
Tumor volume and body weight were recorded every 3 days, and the tumor volume was calculated using the formula: tumor volume (mm^3)=length (mm)×width (mm)^2/2. […]

[3] = cumulative dose of 1170 mg/m^2; cited from earlier work

Q: With O=C1[O][Pt]2([NH][C@@H]3CCCC[C@H]3[NH]2)[O]C1=O [oxaliplatin] as the compound, how does the “body weight of rats in model group versus control group” value [1] read?
A: significantly lower

Q: What about the “mechanical paw-withdrawing threshold, model group compared with control group” value (CIPN rats) of the same compound?
A: significantly decreased

Q: What about the “DRG neuron morphology in model group” value (DRG neurons) of the same compound?
A: part of cell bodies and nuclei of neurons greatly shrinked

Q: And the “expression of TRPM8 mRNA, increase in model group compared with control group” value (TRPM8 mRNA)?
A: 2-4 fold

Q: And the “expression of TRPV1 mRNA, increase in model group compared with control group” value (TRPV1 mRNA)?
A: 2-4 fold

Q: And the “expression of TRPA1 mRNA, increase in model group compared with control group” value (TRPA1 mRNA)?
A: 2-4 fold

Q: What about the “tumour volumes compared with vehicle” value [2] of the same compound?
A: significantly inhibited the increase of tumour volumes

Q: What about the risk of neurotoxicity [3] of the same compound?
A: 50%
